Reference: PMC6934184, “Selective DNA-PKcs inhibition extends the therapeutic index of localized radiotherapy and chemotherapy” (The Journal of Clinical Investigation, 2019)

Target: T1, EGFR (ErbB1) L858R (Homo sapiens, UniProt P00533, L858R)
T1 construct: purchased Thermo Fisher Scientific (Life Technologies) SelectScreen
Test: SelectScreen Z'LYTE
Type: biochemical
Procedure, shortened: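 NU5455 was profiled across the SelectScreen Broad panel of kinase activity and binding assays. Z'LYTE reactions such as CSF1R ran at apparent Km ATP, while the Adapta CAMK1 assay used ATP listed as 10. Values are given as percent.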

T1 sequence (P00533 25-1210 L858R): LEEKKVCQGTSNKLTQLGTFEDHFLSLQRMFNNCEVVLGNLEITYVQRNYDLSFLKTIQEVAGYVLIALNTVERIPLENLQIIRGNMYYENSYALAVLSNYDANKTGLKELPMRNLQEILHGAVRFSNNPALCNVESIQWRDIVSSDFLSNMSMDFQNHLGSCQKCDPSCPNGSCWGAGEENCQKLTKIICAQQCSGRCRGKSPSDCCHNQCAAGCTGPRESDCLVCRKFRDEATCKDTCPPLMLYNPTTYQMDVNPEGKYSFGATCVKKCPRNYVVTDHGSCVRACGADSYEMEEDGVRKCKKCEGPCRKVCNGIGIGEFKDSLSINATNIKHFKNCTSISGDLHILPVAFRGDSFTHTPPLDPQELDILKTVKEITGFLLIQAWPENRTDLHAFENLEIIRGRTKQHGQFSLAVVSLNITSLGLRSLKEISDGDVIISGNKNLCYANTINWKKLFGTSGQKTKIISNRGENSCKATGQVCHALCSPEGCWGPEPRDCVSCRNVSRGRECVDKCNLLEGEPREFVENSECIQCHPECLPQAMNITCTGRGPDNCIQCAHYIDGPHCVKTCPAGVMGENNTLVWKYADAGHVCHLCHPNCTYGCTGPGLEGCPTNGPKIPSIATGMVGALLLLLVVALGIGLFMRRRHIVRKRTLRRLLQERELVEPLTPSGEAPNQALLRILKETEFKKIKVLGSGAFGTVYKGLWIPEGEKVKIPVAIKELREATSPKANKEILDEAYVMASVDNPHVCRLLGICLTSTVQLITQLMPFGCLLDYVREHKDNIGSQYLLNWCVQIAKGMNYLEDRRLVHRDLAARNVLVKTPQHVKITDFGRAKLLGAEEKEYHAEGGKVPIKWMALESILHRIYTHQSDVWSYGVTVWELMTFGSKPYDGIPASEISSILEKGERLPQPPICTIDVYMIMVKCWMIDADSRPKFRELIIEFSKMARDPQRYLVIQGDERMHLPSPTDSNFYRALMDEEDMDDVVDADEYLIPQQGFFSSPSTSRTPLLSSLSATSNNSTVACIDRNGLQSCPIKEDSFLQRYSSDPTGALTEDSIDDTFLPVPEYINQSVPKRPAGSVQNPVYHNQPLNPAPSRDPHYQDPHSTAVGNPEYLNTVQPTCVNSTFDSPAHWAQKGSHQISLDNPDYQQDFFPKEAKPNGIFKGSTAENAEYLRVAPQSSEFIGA

In the case of `CN(C(=O)CN1CCOCC1)c1ccc2sc3c(-c4cccc5c(=O)cc(N6CC7CCC(C6)O7)oc45)cccc3c2c1` [NU5455], the inhibition at 1 µM is reported as -15%.
